Activity data for six compounds are collected here from ChEMBL document CHEMBL5331046, “Disulfiram and dithiocarbamate analogues demonstrate promising antischistosomal effects” (Eur J Med Chem, 2022).

Data set [1] has as its system Schistosoma mansoni. Description: Antischistosomal activity against Schistosoma mansoni couples at 100 uM measured upto 72 hrs by bright field microscopy. In kind it is functional, organism-based.
The subject of data set [2] is Schistosoma mansoni. The data set can be described thus: Antischistosomal activity against Schistosoma mansoni couples at 25 uM measured upto 72 hrs by bright field microscopy. In kind it is functional, organism-based.
In data set [3] the test system is Schistosoma mansoni. Description: Antischistosomal activity against Schistosoma mansoni couples at 10 uM measured upto 72 hrs by bright field microscopy. In kind it is functional, organism-based.
The subject of data set [4] is Schistosoma mansoni. Description: Antischistosomal activity against Schistosoma mansoni couples assessed as inhibition of eggs production at 50 uM measured upto 72 hrs by bright field microscopy. In kind it is functional, organism-based.
Data set [5] deals with Schistosoma mansoni. Description: Antischistosomal activity against Schistosoma mansoni couples assessed as reduction in pairing stability at 50 uM measured upto 72 hrs by bright field microscopy. The data set is classed as functional, organism-based.
For data set [6], the system named is Schistosoma mansoni. The data set can be described thus: Antischistosomal activity against Schistosoma mansoni couples assessed as reduction in pairing stability at 25 uM measured upto 72 hrs by bright field microscopy. The data set is classed as functional.
Data set [7] relates to Schistosoma mansoni. The data set can be described thus: Antischistosomal activity against Schistosoma mansoni couples assessed as inhibition of eggs production at 25 uM measured upto 72 hrs by bright field microscopy. The data set is classed as functional.
Data set [8] deals with Schistosoma mansoni. Description: Antischistosomal activity against Schistosoma mansoni couples assessed as decrease in parasite motility at 10 uM measured upto 72 hrs by bright field microscopy. The data set is classed as functional, organism-based.
Data set [9] deals with Schistosoma mansoni. The data set can be described thus: Antischistosomal activity against Schistosoma mansoni couples assessed as decrease in pairing stability at 5 uM measured upto 72 hrs by bright field microscopy. The data set is classed as functional.
The subject of data set [10] is Schistosoma mansoni. The data set can be described thus: Antischistosomal activity against Schistosoma mansoni couples assessed as decrease in parasite vitality at 5 uM measured upto 72 hrs by bright field microscopy. In kind it is functional, organism-based.
Data set [11] deals with Schistosoma mansoni. Description: Antischistosomal activity against Schistosoma mansoni couples assessed as inhibition of eggs production at 5 uM measured upto 72 hrs by bright field microscopy. In kind it is functional.
Data set [12] concerns Schistosoma mansoni. Description: Antischistosomal activity against Schistosoma mansoni couples assessed as gut dilations at 50 uM measured upto 72 hrs by bright field microscopy. The data set is classed as functional, organism-based.
In data set [13] the test system is Schistosoma mansoni. The data set can be described thus: Antischistosomal activity against Schistosoma mansoni couples assessed as tegument damage at 50 uM measured upto 72 hrs by bright field microscopy. In kind it is functional, organism-based.
The subject of data set [14] is Schistosoma mansoni. The data set can be described thus: Antischistosomal activity against Schistosoma mansoni couples assessed as intestinal dilations and tegument damage at 50 uM measured upto 72 hrs by bright field microscopy. The data set is classed as functional, organism-based.
The subject of data set [15] is Schistosoma mansoni. Description: Antischistosomal activity against Schistosoma mansoni couples assessed as gut dilations at 25 uM measured upto 72 hrs by bright field microscopy. In kind it is functional, organism-based.
The subject of data set [16] is Schistosoma mansoni. Description: Antischistosomal activity against Schistosoma mansoni couples assessed as tegument damage at 25 uM measured upto 72 hrs by bright field microscopy. In kind it is functional, organism-based.
In data set [17] the test system is Schistosoma mansoni. Description: Antischistosomal activity against Schistosoma mansoni couples assessed as intestinal dilations and tegument damage at 25 uM measured upto 72 hrs by bright field microscopy. In kind it is functional, organism-based.
In data set [18] the test system is HepG2. Description: Cytotoxicity against human HepG2 cells assessed as reduction in cell viability upto 50 uM by WST-1 assay. The data set is classed as toxicity, cell-based. The settings on record: hepg2, 50 µM. On the technique in general: Tetrazolium assays rely on reduction of a dye to a coloured formazan, in cell work by metabolically active cells.
Data set [19] has as its system LS174T. The data set can be described thus: Cytotoxicity against human LS174T cells assessed as reduction in cell vaibility upto 50 uM by WST-1 assay. The data set is classed as toxicity, cell-based.
Data set [20] has as its system Schistosoma mansoni. Description: Antischistosomal activity against Schistosoma mansoni couples assessed as decrease in parasite motility at 50 uM measured upto 72 hrs by bright field microscopy. The data set is classed as functional. Also on record: scale not given: the % may be the effect or the level left.
The test system of data set [21] is Schistosoma mansoni. The data set can be described thus: Antischistosomal activity against Schistosoma mansoni couples assessed as decrease in parasite motility at 100 uM measured upto 72 hrs by bright field microscopy. In kind it is functional. Also on record: scale not given: the % may be the effect or the level left.
Data set [22] has as its system Schistosoma mansoni. Description: Antischistosomal activity against Schistosoma mansoni couples assessed as tegument damage at 100 uM measured upto 72 hrs by bright field microscopy. The data set is classed as functional, organism-based.
Data set [23] deals with HepG2. The data set can be described thus: Cytotoxicity against human HepG2 cells assessed as reduction in cell vaibility at 50 uM by WST-1 assay. The data set is classed as toxicity, cell-based. To be noted: hepg2, 50 µM.
Data set [24] deals with LS174T. The data set can be described thus: Cytotoxicity against human LS174T cells assessed as reduction in cell vaibility at 50 uM by WST-1 assay. The data set is classed as toxicity, cell-based.
The subject of data set [25] is Schistosoma mansoni. The data set can be described thus: Antischistosomal activity against Schistosoma mansoni couples assessed as gut dilations at 100 uM measured upto 72 hrs by bright field microscopy. In kind it is functional, organism-based.
Data set [26] has as its system Schistosoma mansoni. The data set can be described thus: Antischistosomal activity against Schistosoma mansoni couples assessed as reduction in pairing stability at 100 uM measured upto 72 hrs by bright field microscopy. In kind it is functional.
In data set [27] the test system is Schistosoma mansoni. The data set can be described thus: Antischistosomal activity against Schistosoma mansoni couples assessed as eggs deformation at 100 uM measured upto 72 hrs by bright field microscopy. In kind it is functional.
For data set [28], the system named is Schistosoma mansoni. The data set can be described thus: Antischistosomal activity against Schistosoma mansoni couples assessed as tegument damage at <=50 uM measured upto 72 hrs by bright field microscopy. In kind it is functional, organism-based.
Data set [29] relates to Schistosoma mansoni. The data set can be described thus: Antischistosomal activity against Schistosoma mansoni couples assessed as reduction in parasite motility at <=50 uM measured upto 72 hrs by bright field microscopy. In kind it is functional, organism-based.
The test system of data set [30] is Schistosoma mansoni. Description: Antischistosomal activity against Schistosoma mansoni couples assessed as detachment of worms from culture dish at 100 uM measured upto 72 hrs by bright field microscopy. The data set is classed as functional, organism-based.

Molecules are shown by their SMILES. The source made the active and inactive calls. The calls are words filed in the database; no cut-off is given here.

For the compound `O=[N+]([O-])c1ccc(CSC(=S)N2CCN(CCO)CC2)cc1`, the result in the data set with Schistosoma mansoni [1] and with Schistosoma mansoni [2] was Active. In addition, in the data set on Schistosoma mansoni [3], the result was inactive.
Consider `CCN(CC)C(=S)SCc1ccc([N+](=O)[O-])cc1`, for which the outcome with Schistosoma mansoni [4], in the data set with Schistosoma mansoni [5], with Schistosoma mansoni [6], in the data set with Schistosoma mansoni [7], in the data set with Schistosoma mansoni [8] and with Schistosoma mansoni [9] was Active. For the same compound, the result in the data set on Schistosoma mansoni [10], in the data set with Schistosoma mansoni [11], in the data set with Schistosoma mansoni [12], with Schistosoma mansoni [13], with Schistosoma mansoni [14] and with Schistosoma mansoni [15] was Active. Also, the outcome with Schistosoma mansoni [16] and with Schistosoma mansoni [17] was Active.
Take `CCN(CC)C(=S)SCc1ccc(SC)cc1`: the result in the data set on Schistosoma mansoni [4], with Schistosoma mansoni [5], with Schistosoma mansoni [12], with Schistosoma mansoni [13] and with Schistosoma mansoni [14] was Active. Also, the Activity entry with HepG2 [18] and with LS174T [19] was “Non-Toxic” in each case.
Turning to `Cl.S=C(SCc1ccccc1)N1CCNCC1`, the Activity with Schistosoma mansoni [20] is on record as around 35%; with Schistosoma mansoni [21], “>=55%”; with HepG2 [23], “Toxic”; with LS174T [24], “Toxic”. In addition, the result with Schistosoma mansoni [22] and in the data set with Schistosoma mansoni [25] was Active.
In the case of `CCCN(CCC)C(=S)SCc1ccccc1`, the result in the data set with Schistosoma mansoni [26], in the data set on Schistosoma mansoni [27] and with Schistosoma mansoni [22] was Active. Besides, in the data set with Schistosoma mansoni [21], the Activity is given as around 40%. In addition, the outcome in the data set on Schistosoma mansoni [28] and with Schistosoma mansoni [29] was inactive.
As to `S=C(SCc1ccccc1)N1CCSC1`, the outcome in the data set on Schistosoma mansoni [30] was Active.
